# Literature values, collected in patent US11608326B2, “Synthetic receptors for ionophoric compounds” (Universiteit Gent, priority 2018, dated 2023).
# Columns and labels:
# [1] = test system: human neural (Paju) cells
# human leukemia cells = conditions: 3 μM, overnight incubation
substance,measurement,setting,value
beauvericin,concentration sufficient to cause depolarization,[1],low μM concentrations
same,drop of survival rate,human leukemia cells,80%
